# Assay results as given in patent US5859034A, “Tri-substituted phenyl compounds which have useful pharmaceutical activity” (Celltech Therapeutics, Limited, priority 1996, dated 1999).
# Molecular target: T1, recombinant PDE IVA enzyme (Homo sapiens, UniProt P27815)
# T1 construct: made in house; host or cells: yeast (inducible vector)
# Assay: Isolated Recombinant Human PDE IVA Enzyme
# Assay type: biochemical
# Settings: 0.1 μM [3H]-cAMP, pH 7.5, 30° C.
# From the text: 1. Isolated Recombinant Human PDE IVA Enzyme
# A gene encoding human PDE IV has been cloned from human monocytes (Livi, et al., 1990, Molecular and Cellular Biology, 10, 2678). Using similar procedures we have cloned human PDE IV genes from a number of sources including eosinophils, neutrophils, lymphocytes, monocytes, brain and neuronal tissues. These genes have been transfected into yeast using an inducible vector and various recombinant proteins have been expressed which have the biochemical characteristics of PDE IV (Beavo and Reifsnyder, 1990, TIPS, 11, 150). These recombinant enzymes, particularly the human eosinophil recombinant PDE IVA, have been used as the basis of a screen for potent, selective PDE IV inhibitors.
# The enzymes were purified to isoenzyme homogeneity using standard chromatographic techniques.
# Phosphodiesterase activity was assayed as follows. The reaction was conducted in 150 μl of standard mixture containing (final concentrations): 50 mM 2-[[tris(hydroxymethyl)methyl]amino]-1-ethanesulphonic acid (TES) --NaOH buffer (pH 7.5), 10 mM MgCl2, 0.1 μM [^3 H]-cAMP and vehicle or various concentrations of the test compounds. […] Recovery of [^3 H]-5'AMP was determined using the [^14 C]-5'AMP and all assays were conducted in the linear range of the reaction. Results were expressed as IC50 values.
# T1 sequence (P27815 whole entry): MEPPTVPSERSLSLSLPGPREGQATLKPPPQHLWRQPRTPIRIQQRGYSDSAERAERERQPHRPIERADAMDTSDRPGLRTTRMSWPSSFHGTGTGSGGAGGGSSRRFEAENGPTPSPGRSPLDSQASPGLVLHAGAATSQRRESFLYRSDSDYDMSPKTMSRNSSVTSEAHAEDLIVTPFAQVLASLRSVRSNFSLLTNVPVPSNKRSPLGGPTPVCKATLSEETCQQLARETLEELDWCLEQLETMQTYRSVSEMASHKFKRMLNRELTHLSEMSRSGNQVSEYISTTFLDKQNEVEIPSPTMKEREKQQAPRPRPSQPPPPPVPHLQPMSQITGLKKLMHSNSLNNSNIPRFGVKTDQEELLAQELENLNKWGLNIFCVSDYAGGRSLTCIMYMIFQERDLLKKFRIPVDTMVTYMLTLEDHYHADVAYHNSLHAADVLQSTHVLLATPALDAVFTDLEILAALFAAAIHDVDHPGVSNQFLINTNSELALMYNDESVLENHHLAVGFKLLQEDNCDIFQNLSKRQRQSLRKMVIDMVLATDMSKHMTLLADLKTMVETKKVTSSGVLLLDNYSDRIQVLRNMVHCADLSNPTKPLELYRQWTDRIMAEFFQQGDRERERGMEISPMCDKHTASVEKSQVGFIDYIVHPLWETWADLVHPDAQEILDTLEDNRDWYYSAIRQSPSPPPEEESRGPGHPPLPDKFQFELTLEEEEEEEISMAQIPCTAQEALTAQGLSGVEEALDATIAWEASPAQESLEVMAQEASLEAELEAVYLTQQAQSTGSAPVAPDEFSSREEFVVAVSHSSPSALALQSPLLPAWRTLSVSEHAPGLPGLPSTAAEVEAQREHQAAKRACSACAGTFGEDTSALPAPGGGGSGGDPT
row,SMILES,IC50 [nM]
1,"CNC(=C[N+](=O)[O-])Nc1cccc([C@@H](Cc2ccncc2)c2ccc(OC)c(OC3CCCC3)c2)c1 [Example 2, (R)-N-{(EIZ)-1-{3-[1-[3-Cyclopentyloxy-4-methoxyphenyl]-2-(4-pyridinyl)ethyl]anilino}-2-nitroethenyl}-N-methylamine]",3.3
2,"CNC(=NC#N)Nc1cccc([C@@H](Cc2ccncc2)c2ccc(OC)c(OC3CCCC3)c2)c1 [Example 4, (R)-N""-Cyano-N'-{3-[1-[3-cyclopentyloxy-4-methoxyphenyl]-2-(4-pyridinyl)ethyl]phenyl}-N-methylamine]",0.5
